Reference: patent US10239889B1, “Pentacyclic compound” (Eisai R&D Management Co., Ltd., priority 2017, dated 2019)

Key:
[1] = system: Choline Acetyltransferase (ChAT) mRNA; experiment: Measurement of choline acetyltransferase (ChAT) mRNA expression levels in the rat septal area; format: in vivo; details: SD rat medial septum, 24 hours after administration, qPCR
Procedure: Measurement of Choline Acetyltransferase (ChAT) mRNA Expression Levels in the Rat Septal Area
(1) Compound Administration
In this study, SD male rats (Charles River Laboratories Japan, Inc.) with a body weight of about 250 to 350 g were used. The compound was dissolved in 0.01 mol/L hydrochloric acid, and orally administered.
At 24 hours after the administration of the compound, the whole brain tissue was collected under pentobarbital anesthesia. The medial septum was isolated from whole brain on ice and frozen with liquid nitrogen, and then stored at −80° C.
(3) Measurement of ChAT mRNA Expression Levels
For RNA purification, RNeasy Plus Mini Kit (#74136: QIAGEN) was used in this study. RNA purification was performed by the method described in the kit. After RNA purification, the total RNA concentration was measured by using QIAxpert Instrument (QIAGEN). cDNA was synthesized using SuperScript® VILO™ cDNA Synthesis Kit (#11754: Thermo Fisher Scientific). The synthesis of cDNA was performed by the method described in the kit. The synthesized cDNA was diluted 4 times with RNase free water, and the diluted cDNA solution was used as a sample. Taqman Universal PCR Master Mix (#4304437: Thermo Fisher Scientific), Taqman® Gene Expression Assays, INVENTORIED (#4331182: Thermo Fisher Scientific), RNase free water, and the cDNA solution were mixed in amounts of 10 μl, 1 μl, 4 μl, and 5 μl, respectively, and the resulting mixture was used as a measurement sample solution. Quantitative polymerase chain reaction (qPCR) was conducted using ABI PRISM® 7900HT (Thermo Fisher Scientific) by a fluorescence probe method. Analysis was performed by SDS 2.4 (Thermo Fisher Scientific). The results were calculated by the percentage of the amount of ChAT mRNA expression levels in the compound administration group increased from the amount of ChAT mRNA expression levels in the vehicle administration group.

[2] = system: rat primary septal neuron culture; experiment: Measurement of acetylcholine (ACh) release in the rat primary septal neuron culture system in the presence of NGF; format: cell-based; details: rat primary septal neurons, with NGF, one day after compound addition, ACh by HPLC
Text: Measurement of acetylcholine (ACh) release in the rat primary septal neuron culture system in the presence of NGF
(1) Rat Primary Septal Neuron Culture
The septal area was isolated from Sprague-Dawley (SD) rats (Charles River Laboratories Japan, Inc.) at a fetal age of 18 days, and cultured.
Specifically, fetuses were aseptically removed from pregnant rats under isoflurane anesthesia. The brain was extracted from each fetus, and immersed in ice-cooled L-15 medium (11415-064, Thermo Fisher Scientific). The septal area was dissected from the extracted brain under a stereoscopic microscope. The dissected septal area was subjected to enzyme treatment in an enzyme solution containing 0.25% trypsin (15050-065, Thermo Fisher Scientific) and 0.01% DNase (D5025-150KU, Sigma) at 37° C. for 30 minutes, thereby dispersing the cells. In this case, the enzyme reaction was terminated by adding inactivated horse serum (26050-088, Thermo Fisher Scientific). The enzyme-treated solution was centrifuged at 1000 rpm for 3 minutes, and the supernatant was removed. A medium in an amount of 10 mL was added to the obtained cell mass. The medium used was Dulbecco's Modified Eagle's Medium (044-29765, WAKO) supplemented with N2 supplement (17502-048, Thermo Fisher Scientific), 1 mM sodium pyruvate (11360-070, Thermo Fisher Scientific), and Penicillin-Streptomycin (15140-1221, Thermo Fisher Scientific). The cells of the cell mass to which the medium was added were redispersed by gentle pipetting, and then centrifuged again at 1000 rpm for 3 minutes, and the supernatant was removed. The medium in an amount of 10 mL was added to the obtained cell mass, and the cell dispersion was filtered through a 40-μm nylon mesh (Cell Strainer) to remove the cell mass, thereby obtaining a neuronal cell suspension. The neuronal cell suspension was diluted with the medium, and 10% inactivated bovine serum (26140-079, Thermo Fisher Scientific) and 10% inactivated horse serum were added. Thereafter, 100 μL/well of the suspension was seeded in a 96-well plate (354461, CORNING) pre-coated with poly-D-lysine so that the initial culture density was 1.4×10^5 cells/cm^2. After the seeded cells were cultured under 5% CO2-95% air in a 37° C. incubator for 2 days, the entire medium was replaced with 120 μL of fresh medium, and the cells were subsequently cultured for 5 days.
On the 7th day of culture, compound was added in the following manner. A solution of the test compound in DMSO was diluted with the medium so that the concentration was 10 times higher than the final concentration. NGF (450-01, PEPRO TECH, INC.) was prepared at 0.3 ng/mL. These two solutions were added each in an amount of 15 μL/well, and the mixture was mixed well. The final DMSO concentration was 0.1% or less. Moreover, only DMSO and NGF were added to the control group.
(3) ACh Release Measurement
One day after compound addition, an amount of ACh release was measured by HPLC in the following manner. A warmed buffer was added at 100 μL/well to the well after the medium was eliminated, and the buffer was immediately removed. Thereafter, a buffer to which 10 μm choline, 10 μm physostigmine, and 6 mM KCl were added was added at 120 μL/well. The buffer was prepared by adding 125 mM NaCl, 25 mM 4-(2-hydroxyethyl)-1-piperazineethanesulfonic acid, 1.2 mM KH2PO4, 1.2 mM MgSO4, 2.2 mM CaCl2 (2H2O), and 10 mM glucose to sterilized water, and the final pH of the solution was set to 7.4. After the 96-well plate to which the buffer was added was incubated under 5% CO2-95% air in a 37° C. incubator for 40 minutes, 80 μL of buffer was collected. An internal standard solution IPHC (5×10^−7 M) was added in an amount of 6 μL to the collected buffer, and the buffer was transferred to a tube for HPLC measurement and subjected to HPLC measurement. […]

SMILES | Amount (%) increased from the amount of ChAT mRNA expression levels in the vehicle administration group ([1]; oral 3 mg/kg) [%] | Concentration (μM) showing a 20% or more increase from the amount of ACh in the control group [2] [µM] | Amount (%) increased from the amount of ChAT mRNA expression levels in the vehicle administration group ([1]; oral 10 mg/kg) [%]
CN1CCc2c(sc3nc4n(c(=O)c23)-c2ccsc2C(=O)N(C)C4)C1 [Example 2, 5,10-dimethyl-5,6,9,10,11,12-hexahydropyrido[4″,3″:4′,5′]thieno[2′,3′:4,5]pyrimido[1,2-a]thieno[2,3-f][1,4]diazepine-4,13-dione] | 38.0 | 0.1 | –
CN1CCc2c(sc3nc4n(c(=O)c23)[C@@H]2CCC[C@@H]2C(=O)N(C)C4)C1 [Example 4, (3aS,14aR)-5,10-dimethyl-3,3a,5,6,9,10,11,12-octahydro-1H-cyclopenta[f]pyrido[4″,3″:4′,5′]thieno[2′,3′:4,5]pyrimido[1,2-a][1,4]diazepine-4,13(2H,14aH)-dione] | – | 0.1 | 42.4
CN1CCc2c(sc3nc4n(c(=O)c23)[C@@H]2CCC[C@H]2C(=O)N(C)C4)C1 [Example 5, (3aR,14aR)-5,10-dimethyl-3,3a,5,6,9,10,11,12-octahydro-1H-cyclopenta[f]pyrido[4″,3″:4′ 5′]thieno[2′,3′:4,5]pyrimido[1,2-a][1,4]diazepine-4,13(2H,14aH)-dione] | 33.6 | 0.1 | –
CN1CCc2c(sc3nc4n(c(=O)c23)[C@H]2CCC[C@@H]2C(=O)N(C)C4)C1 [Example 6, (3aS,14aS)-5,10-dimethyl-3,3a,5,6,9,10,11,12-octahydro-H-cyclopenta[f]pyrido[4″,3″:4′,5′]thieno[2′,3′:4,5]pyrimido[1,2-a][1,4]diazepine-4,13(2H,14aH)-dione] | – | 0.03 | 32.0
